“Also recorded” adds a separate entry of the source.
B1: full-length recombinant vitronectin: xeno-free recombinant full-length vitronectin (PeproTech), coated on plate at 5 μg/mL as culture substrate (protein, UniProt P04004 1-478, looked up)
chain: MAPLRPLLILALLAWVALADQESCKGRCTEGFNVDKKCQCDELCSYYQSCCTDYTAECKPQVTRGDVFTMPEDEYTVYDDGEEKNNATVHEQVGGPSLTSDLQAQSKGNPEQTPVLKPEEEAPAPEVGASKPEGIDSRPETLHPGRPQPPAEEELCSGKPFDAFTDLKNGSLFAFRGQYCYELDEKAVRPGYPKLIRDVWGIEGPIDAAFTRINCQGKTYLFKGSQYWRFEDGVLDPDYPRNISDGFDGIPDNVDAALALPAHSYSGRERVYFFKGKQYWEYQFQHQPSQEECEGSSLSAVFEHFAMMQRDSWEDIFELLFWGRTSAGTRQPQFISRDWHGVPGQVDAAMAGRIYISGMAPRPSLAKKQRFRHRNRKGYRSQRGHSRGRNQNSRRPSRATWLSLFSSEESNLGANNYDDYRMDWLVPATCEPIQSVFFFSGDKYYRVNLRTRRVDTVDPPYPRSIAQYWLGCPAPGHL
modifications: full-length
notes: xeno-free recombinant full-length vitronectin (PeproTech), coated on plate at 5 μg/mL as culture substrate

Assays:
Format in all cases: cell-based, human
primed HPSCs [1] = test: ERK inhibitor assay, primed PSCs; details: 10 nM ERK inhibitor in media, imaged each day for 4 days
Procedure: (§1) One day after passaging, 10 nM ERK inhibitor PD0325901 (PZ0162, Sigma-Aldrich, St. Louis, Mo.) was added to naïve or primed PSCs. Cells were imaged each day for 4 days to follow morphology changes.

naïve HPSCs [2] = test: ERK inhibitor assay, naïve PSCs; details: naïve HPSCs in RSet media, additional 10 nM ERK inhibitor, imaged each day for 4 days; listed as PD325901
Procedure: as §1

primed HPSCs [3] = test: Feeder-free transition of primed HPSCs to the naïve state on a culture substrate; details: RSet media, substrate-coated plate
Procedure: Primed induced pluripotent stem cell (PCBC16iPS) (Ye et al. (2013) PLoS ONE 8 (1):e53764) to be used for naïve cell derivation were cultured for at least two passages in mTeSR1 medium (STEMCELL Technologies, Vancouver, Canada) in either normoxic (20% O2, 5% CO2) or hypoxic conditions (5% O2, 5% CO2). Primed iPSCs were treated with Gentle Cell Dissociation Reagent (STEMCELL Technologies, Vancouver, Canada) for 5 minutes at room temperature and removed from the plate with a 5 milliliter (mL) pipette in 1 mL TeSR1 medium. Aggregates of 250 primed iPSCs were plated in 1 mL mTeSR1 (STEMCELL Technologies, Vancouver, Canada) per well of a 12-well tissue culture treated plate (Corning, Inc., Corning, N.Y.) coated with 5 micrograms per milliliter (μg/mL) full-length vitronectin (PeproTech, Rocky Hill, N.J.) (Parr et al. (2016) Methods in Molecular Biology 1357:221-9). The plate had been previously coated with vitronectin at 37° C. for 2 hours per manufacturer's protocol. The plated cells were incubated overnight at 37° C., to allow adherence to the vitronectin coated plate. The cells may be incubated in either normoxic or hypoxic conditions, and typically were incubated under the same conditions used to maintain the primed HPSC culture. […] Cells were monitored for compaction and defined colony edges. […]

naïve HPSCs [4] = test: Karyotype of transitioned naïve HPSCs (high-resolution G banding); details: after 10 passages in RSet media
Text: Naïve HPSCs were examined by high-resolution G banding after 10 passages in RSet medium.

Molecule	differentiation / maintenance of pluripotency (morphology changes) (primed HPSCs [1])	differentiation / maintenance of undifferentiated state (morphology changes) (naïve HPSCs [2])	support of transition from primed to naïve pluripotent state (primed HPSCs [3])	karyotype of naïve HPSCs derived on the substrate (naïve HPSCs [4])
O=C(NOC[C@H](O)CO)c1ccc(F)c(F)c1Nc1ccc(I)cc1F [PD0325901]	induces differentiation; also recorded: displayed immediate differentiation	maintain their undifferentiated state	–	–
B1	–	–	supports the successful transition	normal karyotype
